Measurements reported in patent publication US9193740B2, “Bismacrocyclic compounds as hepatitis C virus inhibitors” (Enanta Pharmaceuticals, Inc., priority 2009, dated 2015).

System: HCV 1b genotype replicon
Assay: Cell-based HCV replicon assay (qRT-PCR or luciferase), genotype 1b
Conditions: Hepatitis C virus
Description: Cell-Based Replicon Assay
The anti-HCV activity of the compounds is determined using the cell-based replicon assay and the HCV replication assay described in US Publication No: 2010/0003214, incorporated herein by reference in its entirety.
HCV Replicon Assay—Luciferase
Since clinical drug resistance often develops in viral infections following single agent therapies, there is a need to assess the additive, antagonistic, or synergistic properties of combination therapies. We use the HCV replicon system to assess the potential use of the compound of the present invention or in combination therapies with Interferon alpha, cyclosporine analogs and inhibitors targeting other HCV proteins. The acute effects of a single or combinations of drugs are studied in the “Huh-luc/neo-ET” replicon with each chemical agent titrated in an X or Y direction in a 6 point two-fold dilution curve centered around the EC50 of each drug. […] Using this method, the combination data are analyzed for antagonistic, additive, or synergistic combination effects across the entire combination surface created by the diluted compounds in combination. […]

Row | SMILES | EC50 [nM]
1 | CC1(C)CC/C=C/C(F)(F)c2nc3ccccc3nc2O[C@@H]2C[C@H]3C(=O)N[C@]4(C(=O)NS(=O)(=O)C5CC5)C[C@H]4/C=C\CCCCC[C@H](NC(=O)OC1)C(=O)N3C2 [Example 8] | < 1
2 | O=C1N[C@H]2CCCCC/C=C\[C@@H]3C[C@@]3(C(=O)NS(=O)(=O)C3CC3)NC(=O)[C@@H]3C[C@H](CN3C2=O)Oc2nc3ccccc3nc2-c2cccc(c2)OCC(F)(F)CO1 [Example 2] | < 1
